Measured values as given in patent publication US7169789B2 (Kirin Beer Kabushiki Kaisha, priority 1999, dated 2007).

Assays:
[1] = tested on: Human glioma cells GL07; assay: Antitumor effect on human glioma cells (GL07) transplanted into nude mice; type: in vivo; settings: GL07, oral, 20 mg/kg once a day for 9 days; for inhibition in vivo at 20 mg/kg: Mus musculus, Glioma cell, 216 h, read-out: TGIR, % (tumor growth inhibition rate)
Method: Antitumor Effect on Human Glioma Cells (GL07)
Human glioma cells GL07 (obtained from Central Laboratories for Experimental Animals) were transplanted into nude mice. When the tumor volume became about 100 mm^3, the mice were grouped. In this case, grouping was carried out so that each group consisted of four mice and the average tumor volume was even among the groups. The test compound was orally or intraperitoneally administered at a dose of 20 mg/kg to the test groups every day once a day for 9 days, while the medium was administered to the control group in the manner as in the test groups. The tumor growth inhibition rate (TGIR) was calculated as follows: The tumor growth inhibition rate (TGIR)=(1−Tx/Cx)×100 wherein Cx represents the volume of tumor at day x for the control group when the tumor volume at the day of the start of the administration was presumed to be 1; and Tx represents the volume of tumor for test compound administration groups.

[2] = target: T1, human KDR (Homo sapiens, UniProt P35968); assay: Inhibitory activity against KDR phosphorylation by ELISA; type: cell-based; settings: NIH 3T3 cells transfected with human KDR, VEGF 100 ng/ml
T1 construct: expressed in transfected cells; host or cells: NIH 3T3 cells (Sawano A et al., Cell Growth & Differentiation 7, 213-221 (1996))
Method: Measurement of Inhibitory Activity Against KDR Phosphorylation by ELISA
NIH 3T3 cells (Sawano A et al., Cell Growth & Differentation, 7, 213–221 (1996), “Flt-1 but not KDR/Flk-1 tyrosine kinase is a receptor for placenta growth factor, which is related to vascular endothelial growth factor”) prepared by transfection of human KDR were cultured in a DMEM medium containing 10% fetal calf serum (purchased from GIBCO BRL) within a 5% carbon dioxide incubator until 50 to 70% confluent. The harvested cells were inoculated into wells, containing the same medium, in a collagen-type one-coat 96-well flat-bottom plate in an amount of 1.5×10^4 per well, followed by cultivation at 37° C. overnight. The medium was then replaced by a DMEM medium containing 0.1% fetal calf serum. A solution of the test compound in dimethyl sulfoxide was added to each well, and the cultivation was continued at 37° C. for additional one hr. A human recombinant vascular endothelial growth factor (hereinafter abbreviated to “VEGF”) was added to a final concentration of 100 ng/ml, and the stimulation of cells was carried out at 37° C. for 2 min. The medium was removed, the cells were washed with phosphate buffered saline (pH 7.4), and 50 μl of a solubilization buffer (20 mM HEPES (pH 7.4), 150 mM NaCl, 0.2% Triton X-100, 10% glycerol, 5 mM sodium orthovanadylate, 5 mM disodium ethylenediaminetetraacetate, and 2 mM Na4P2O7) was then added thereto. The mixture was shaken at 4° C. for 2 hr to prepare a cell extract.
Separately, phosphate buffered saline (50 μl, pH 7.4) containing […] of anti-phospho-tyrosine antibody (PY20; purchased from Transduction Laboratories) was added to a microplate for ELISA (Maxisorp; purchased from NUNC), followed by standing at 4° C. overnight to form a solid phase on the wells. After washing of the plate, 300 μl of a blocking solution was added, followed by standing at room temperature for 2 hr to perform blocking. After washing, the whole quantity of the cell extract was transferred to the wells, and the plate was then allowed to stand at 4° C. overnight. After washing, an anti-KDR antibody (purchased from Santa Cruz) was allowed to react at room temperature for one hr, and, after washing, a peroxidase-labeled anti-rabbit Ig antibody (purchased from Amersham) was allowed to react at room temperature for one hr. After washing, a chromophoric substrate for peroxidase (purchased from Sumitomo Bakelite Co., Ltd.) was added thereto to initiate a reaction. After a suitable level of color development, a reaction termination solution was added to stop the reaction, and the absorbance at 450 nm was measured with a microplate reader. The KDR phosphorylation activity for each well was determined by presuming the absorbance with the addition of VEGF and without the addition of the medicament to be 100% KDR phosphorylation activity and the absorbance without the medicament and VEGF to be 0% KDR phosphorylation activity. The concentration of the test compound was varied on several levels, the inhibition (%) of KDR phosphorylation was determined for each case, and the concentration of the test compound necessary for inhibiting 50% of KDR phosphorylation (IC50) was calculated.

T1 sequence (P35968 20-1356): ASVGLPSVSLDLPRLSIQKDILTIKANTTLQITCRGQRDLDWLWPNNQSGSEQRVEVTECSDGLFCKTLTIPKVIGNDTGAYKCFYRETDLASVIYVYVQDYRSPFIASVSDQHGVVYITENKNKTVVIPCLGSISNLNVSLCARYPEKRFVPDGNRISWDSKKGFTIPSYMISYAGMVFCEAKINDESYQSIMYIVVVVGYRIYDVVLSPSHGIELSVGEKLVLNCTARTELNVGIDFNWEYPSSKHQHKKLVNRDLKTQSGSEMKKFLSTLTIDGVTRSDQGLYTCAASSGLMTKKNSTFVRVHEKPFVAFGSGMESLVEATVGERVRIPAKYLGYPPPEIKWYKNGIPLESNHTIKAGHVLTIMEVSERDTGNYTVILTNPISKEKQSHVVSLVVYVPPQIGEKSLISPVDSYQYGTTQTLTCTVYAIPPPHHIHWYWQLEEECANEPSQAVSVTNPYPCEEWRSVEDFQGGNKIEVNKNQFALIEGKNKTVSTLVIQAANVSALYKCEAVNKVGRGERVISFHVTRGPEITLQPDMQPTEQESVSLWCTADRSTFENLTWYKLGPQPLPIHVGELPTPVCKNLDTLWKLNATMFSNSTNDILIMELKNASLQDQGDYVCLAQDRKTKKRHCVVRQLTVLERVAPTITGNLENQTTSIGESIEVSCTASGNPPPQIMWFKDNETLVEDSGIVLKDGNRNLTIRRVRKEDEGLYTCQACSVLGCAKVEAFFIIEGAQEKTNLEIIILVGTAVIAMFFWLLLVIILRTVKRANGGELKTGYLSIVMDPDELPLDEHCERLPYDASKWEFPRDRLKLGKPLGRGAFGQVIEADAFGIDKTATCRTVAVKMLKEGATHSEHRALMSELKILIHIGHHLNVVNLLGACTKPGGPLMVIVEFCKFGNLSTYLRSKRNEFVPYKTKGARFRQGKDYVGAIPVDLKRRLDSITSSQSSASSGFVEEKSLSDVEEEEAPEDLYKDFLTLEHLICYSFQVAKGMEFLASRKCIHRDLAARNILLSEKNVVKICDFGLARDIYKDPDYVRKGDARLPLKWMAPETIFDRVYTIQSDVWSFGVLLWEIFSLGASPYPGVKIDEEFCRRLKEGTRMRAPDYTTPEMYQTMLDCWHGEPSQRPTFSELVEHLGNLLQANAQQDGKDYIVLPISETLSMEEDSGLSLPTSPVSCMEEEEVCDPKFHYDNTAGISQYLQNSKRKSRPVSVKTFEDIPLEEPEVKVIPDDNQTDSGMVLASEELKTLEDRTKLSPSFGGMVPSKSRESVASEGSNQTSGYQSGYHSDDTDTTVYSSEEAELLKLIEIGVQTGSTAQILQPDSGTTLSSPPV

Row | SMILES | IC50 [2] [nM] | inhibition in vivo at 20 mg/kg [1] [%] | TGIR, % (tumor growth inhibition rate) [1] [%]
1 | COc1cc(Oc2ncnc3cc(OCCCN4CCOCC4)c(OC)cc23)ccc1NC(=O)Nc1ccc(F)cc1F [Example 172, N-(2,4-Difluorophenyl)-N′-(2-methoxy-4-{[6-methoxy-7-(3-morpholinopropoxy)-4-quinazolinyl]oxy}-phenyl)urea] | – | 42 | –
2 | CCCNC(=O)Nc1ccc(Oc2ncnc3cc(OCCCN4CCCCC4)c(OC)cc23)cc1Cl [Example 135, N-(2-chloro-4-{[6-methoxy-7-(3-piperidinopropoxy)-4-quinazolinyl]oxy}phenyl)-N′-propylurea] | 1 | 62 | –
3 | CCCNC(=O)Nc1ccc(Oc2ccnc3cc(OCCCCn4ccnn4)c(OC)cc23)cc1Cl [Example 158, N-[2-Chloro-4-({6-methoxy-7-[4-(1H-1,2,3-triazol-1-yl)butoxy]-4-guinolyl}oxy)phenyl]-N′-propylurea] | 1.6 | 39 | –
4 | CCCNC(=O)N(COC)c1ccc(Oc2ncnc3cc(OC)c(OC)cc23)cc1Cl [Example 109, N-{2-Chloro-4-[(6,7-dimethoxy-4-quinazolinyl)oxy]phenyl}-N-methoxymethyl-N′-propylurea] | – | 71 | –
5 | CCCNC(=O)Nc1ccc(Oc2ncnc3cc(OCCCN4CCN(C)CC4)c(OC)cc23)cc1Cl [Example 130, N-[2-Chloro-4-({6-methoxy-7-[3-(4-methylpiperazino)propoxy]-4-quinazolinyl}oxy)phenyl]-N′-propylurea] | – | 32 | –
6 | CNC(=O)Nc1ccc(Oc2ncnc3cc(OC)c(OC)cc23)cc1Cl [Example 117, N-{2-chloro-4-[(6,7-dimethoxy-4-quinazolinyl)oxy]phenyl}-N′-methylurea] | 24 | – | –
7 | CCCNC(=O)Nc1ccc(Oc2ccnc3cc(OCCCN4CCOCC4)c(OC)cc23)cc1OC [Example 173, N-(2-Methoxy-4-{[6-methoxy-7-(3-morpholinopropoxy)-4-quinolyl]oxy}phenyl)-N′-propylurea] | – | 21 | –
8 | CCCNC(=O)Nc1ccc(Oc2ncnc3cc(OCCN4CCN(C)CC4)c(OC)cc23)cc1Cl [Example 128, N-[2-Chloro-4-({6-methoxy-7-[2-(4-methylpiperazino)ethoxy]-4-quinazolinyl}oxy)phenyl]-N′-propylurea] | – | 21 | –
9 | CCCNC(=O)Nc1ccc(Oc2ncnc3cc(OC)c(OC)cc23)cc1F [Example 88, N-{4-[(6,7-Dimethoxy-4-quinazolinyl)oxy]-2-fluorophenyl}-N′-propylurea] | 61 | – | –
10 | CCCCNC(=O)Nc1ccc(Oc2ncnc3cc(OC)c(OC)cc23)cc1[N+](=O)[O-] [Example 108, N-Butyl-N′-{4-[(6,7-dimethoxy-4-quinazolinyl)oxy]-2-nitrophenyl}urea] | 5 | – | –
11 | COc1cc2c(Oc3ccc(NC(=O)Nc4ccc(F)cc4F)c(Cl)c3)ccnc2cc1OCCN1CCOCC1 [Example 51, N-(2-chloro-4-{[6-methoxy-7-(2-morpholinoethoxy)-4-quinolyl]oxy}phenyl)-N′-(2,4-difluorophenyl)urea] | – | 65 | –
12 | CCCNC(=O)Nc1ccc(Oc2ncnc3cc(OCCN(C)CCO)c(OC)cc23)cc1Cl [Example 129, N-{2-Chloro-4-[(7-{2-[(2-hydroxyethyl)-(methyl)amino]ethoxy}-6-methoxy-4-quinazolinyl)oxy]-phenyl}-N′-propylurea] | – | 25 | –
13 | CCCNC(=O)Nc1ccc(Oc2ncnc3cc(OCCCN4CCOCC4)c(OC)cc23)cc1OC [Example 171, N-(2-Methoxy-4-{[6-methoxy-7-(3-morpholinopropoxy)-4-quinazolinyl]oxy}phenyl)-N′-propylurea] | – | 13 | –
14 | COc1cc2ncnc(Oc3ccc(NC(=O)N(C)C)c(Cl)c3)c2cc1OC [Example 118, N′-{2-Chloro-4-[(6,7-dimethoxy-4-quinazolinyl)oxy]phenyl}-N,N-dimethylurea] | > 1000 | – | –
15 | CCCNC(=O)Nc1ccc(Oc2ccnc3cc(OCc4ccncc4)c(OC)cc23)cc1OC [Example 174, N-(2-Methoxy-4-{[6-methoxy-7-(4-pyridylmethoxy)-4-guinolyl]oxy}phenyl)-N′-propylurea] | – | – | 19
16 | C#CCNC(=O)Nc1ccc(Oc2ncnc3cc(OC)c(OC)cc23)cc1Cl [Example 81, N-{2-Chloro-4-[(6,7-dimethoxy-4-quinazolinyl)oxy]phenyl}-N′-(2-propynyl)urea] | 4.1 | – | –

Further lines, with some results ahead:

Row | IC50 [2] [nM] | SMILES | inhibition in vivo at 20 mg/kg [1] [%] | TGIR, % (tumor growth inhibition rate) [1] [%]
17 | 0.4 | CCCNC(=O)Nc1ccc(Oc2ccnc3cc(OCCCN(C)CCO)c(OC)cc23)cc1Cl [Example 157, N-{2-chloro-4-[(7-{3-[(2-hydroxyethyl)-(methyl)amino]propoxy}-6-methoxy-4-quinolyl)oxy]-phenyl}-N′-propylurea] | 44 | –
18 | 1.8 | CCCNC(=O)Nc1ccc(Oc2ccnc3cc(OCCN(C)CCO)c(OC)cc23)cc1Cl [Example 150, N-{2-Chloro-4-[(7-{2-[(2-hydroxyethyl)-(methyl)amino]ethoxy}-6-methoxy-4-guinolyl)oxy]phenyl}-N′-propylurea] | 22 | –
19 | 24 | CCCNC(=O)Nc1ccc(Oc2ncnc3cc(OC)c(OCCCN4CCN(C)CC4)cc23)cc1Cl [Example 137, N-[2-Chloro-4-({7-methoxy-6-[3-(4-methylpiperazino)propoxy]-4-quinazolinyl}oxy)phenyl]-N′-propylurea] | 20 | –
20 | 0.8 | CCCNC(=O)Nc1ccc(Oc2ccnc3cc(OCCCN(CCO)CCO)c(OC)cc23)cc1Cl [Example 156, N-{2-Chloro-4-[(7-{3-[di(2-hydroxyethyl)-amino]propoxy}-6-methoxy-4-guinolyl)oxy]phenyl}-N′-propylurea] | 24 | –
21 | 0.5 | CCCNC(=O)Nc1ccc(Oc2ccnc3cc(OCCCN4CCOCC4)c(OC)cc23)cc1Cl [Example 151, N-(2-chloro-4-{[6-methoxy-7-(3-morpholinopropoxy)-4-quinolyl]oxy}phenyl)-N′-propylurea] | 44 | –
22 | 2.1 | CCCNC(=O)Nc1ccc(Oc2ccnc3cc(OCCN(CCO)CCO)c(OC)cc23)cc1Cl [Example 155, N-{2-Chloro-4-[(7-{2-[di(2-hydroxyethyl)-amino]ethoxy}-6-methoxy-4-guinolyl)oxy]phenyl}-N-propylurea] | 29 | –
23 | 1.6 | CCCNC(=O)Nc1ccc(Oc2ccnc3cc(OCCN4CCOCC4)c(OC)cc23)cc1Cl [Example 144, N-(2-chloro-4-{[6-methoxy-7-(2-morpholinoethoxy)-4-quinolyl]oxy}phenyl)-N′-propylurea] | 56 | –
24 | 1.1 | COc1cc2c(Oc3ccc(NC(=O)Nc4ccc(F)cc4F)c(Cl)c3)ccnc2cc1OCCn1ccnn1 [Example 170, N-[2-chloro-4-(6-methoxy-7-{[2-(1H-1,2,3-triazol-1-yl)ethoxy]-4-quinolyl}oxy)phenyl]-N′-(2,4-difluorophenyl)urea] | – | 64
25 | 0.6 | COc1cc2c(Oc3ccc(NC(=O)Nc4ccc(F)cc4F)c(Cl)c3)ncnc2cc1OCCCN(C)CCO [Example 165, N-{2-chloro-4-[(7-{3-[(2-hydroxyethyl)-(methyl)amino]propoxy}-6-methoxy-4-quinazolinyl)oxy]-phenyl}-N′-(2,4-difluorophenyl)urea] | 44 | –
